Laboratory results published in US20090252703A1, “Use of alcohol co-solvents to improve pegylation reaction yields” (priority 2006, published 2009).

assay: solubility of CGRP peptides in aqueous conjugation buffer; type: physicochemical; details: aqueous conjugation buffers used for coupling vehicle to the peptide
Description: Co-solvent mediated conjugation of vehicle to CGRP peptide antagonists.

Which “solubility in aqueous buffer medium (in words)” value (shortened to “solubility”) does the source give for `CC(=O)N[C@@H](Cc1c[nH]c2ccccc12)C(=O)N[C@H](C(=O)N[C@H](C(=O)N[C@@H](Cc1cnc[nH]1)C(=O)N[C@@H](CCCNC(N)=O)C(=O)N[C@@H](CC(C)C)C(=O)N[C@@H](C)C(=O)NCC(=O)N[C@@H](CC(C)C)C(=O)N[C@@H](CC(C)C)C(=O)N[C@@H](CO)C(=O)N[C@@H](CCCNC(N)=O)C(=O)N[C@@H](CO)C(=O)NCC(=O)NCC(=O)N[C@H](C(=O)N[C@H](C(=O)N[C@@H](CCCCNC(=N)N)C(=O)N[C@@H](CCCCN)C(=O)N[C@@H](CC(N)=O)C(=O)N[C@@H](Cc1ccccc1)C(=O)N[C@H](C(=O)N1CCC[C@H]1C(=O)N[C@H](C(=O)N[C@@H](CC(=O)O)C(=O)N[C@H](C(=O)NCC(=O)N1CCC[C@H]1C(=O)N[C@@H](Cc1ccccc1)C(=O)N[C@@H](C)C(=O)N[C@@H](Cc1ccccc1)C(N)=O)C(C)C)[C@@H](C)O)C(C)C)C(C)C)C(C)C)[C@@H](C)O)C(C)C` [SEQ ID NO:2] here?
The value was “relatively insoluble”.

Which “solubility” value does the source give for `CC(=O)N[C@@H](Cc1c[nH]c2ccccc12)C(=O)N[C@H](C(=O)N[C@H](C(=O)N[C@@H](Cc1cnc[nH]1)C(=O)N[C@@H](CCCNC(N)=O)C(=O)N[C@@H](CC(C)C)C(=O)N[C@@H](C)C(=O)NCC(=O)N[C@@H](CC(C)C)C(=O)N[C@@H](CC(C)C)C(=O)N[C@@H](CO)C(=O)N[C@@H](CCCNC(N)=O)C(=O)N[C@@H](CO)C(=O)NCC(=O)NCC(=O)N[C@H](C(=O)N[C@H](C(=O)N[C@@H](CCCCNC(=N)N)C(=O)N[C@@H](CCCCN)C(=O)N[C@@H](CC(N)=O)C(=O)N[C@@H](Cc1ccccc1)C(=O)N[C@H](C(=O)N1CCC[C@H]1C(=O)N[C@H](C(=O)N[C@@H](CC(=O)O)C(=O)N[C@H](C(=O)NCC(=O)N1C2CCCCC2C[C@H]1C(=O)N[C@@H](Cc1ccccc1)C(=O)N[C@@H](C)C(=O)N[C@@H](Cc1ccccc1)C(N)=O)C(C)C)[C@@H](C)O)C(C)C)C(C)C)C(C)C)[C@@H](C)O)C(C)C` (stereo partly drawn) [SEQ ID NO:3] here?
Its value is “relatively insoluble”.

For `CC(=O)N[C@@H](Cc1c[nH]c2ccccc12)C(=O)N[C@H](C(=O)N[C@H](C(=O)N[C@@H](Cc1cnc[nH]1)C(=O)N[C@@H](CCCN=C(N)N)C(=O)N[C@@H](CC(C)C)C(=O)N[C@@H](C)C(=O)NCC(=O)N[C@@H](CC(C)C)C(=O)N[C@@H](CC(C)C)C(=O)N[C@@H](CO)C(=O)N[C@@H](CCCN=C(N)N)C(=O)N[C@@H](CO)C(=O)NCC(=O)NCC(=O)N[C@H](C(=O)N[C@H](C(=O)N[C@@H](CCCN=C(N)N)C(=O)N[C@@H](CCCCN)C(=O)N[C@@H](CC(N)=O)C(=O)N[C@@H](Cc1ccccc1)C(=O)N[C@H](C(=O)N1CCC[C@H]1C(=O)N[C@H](C(=O)N[C@@H](CC(=O)O)C(=O)N[C@H](C(=O)NCC(=O)N1CCC[C@H]1C(=O)N[C@@H](Cc1ccccc1)C(=O)N[C@@H](C)C(=O)N[C@@H](Cc1ccccc1)C(N)=O)C(C)C)[C@@H](C)O)C(C)C)C(C)C)C(C)C)[C@@H](C)O)C(C)C` [SEQ ID NO:7], which “solubility” value is on record?
Its value is “relatively soluble”.
